Experimental data taken from paper PMC10425983 (ACS Infectious Diseases, 2023).

Experiments:
[1] = Cytotoxicity toward primary peritoneal mouse macrophages; type: cell-based; conditions: Swiss, mouse, primary peritoneal mouse macrophages (PMM), PMM pCC50, primary mouse macrophages; highest in-test concentration 64 μM
[2] = Human liver microsome intrinsic clearance; type: in vitro ADME; conditions: for microsomal CLint at 3 µM: human, human liver microsomes, pH 7.4, HLM clint
[3] = Thermodynamic aqueous solubility; type: physicochemical
[4] = system: L. infantum (MHOM/MA(BE)/67/ITMAP263) amastigotes; test: L. infantum intramacrophage amastigote assay; type: cell-based, Leishmania infantum; conditions: for EC50: Leishmania infantum, 120 h, read-out: L.inf pEC50 (converted); for SI: ratio CC50 μM (PMM)/EC50 μM (L.inf)
[5] = Rat hepatocyte intrinsic clearance; type: in vitro ADME; conditions: for hepatocyte CLint: rat, rat hepatocytes
[6] = system: primary peritoneal mouse macrophages (PMM); test: Cytotoxicity toward primary peritoneal mouse macrophages; type: cell-based; conditions: primary mouse macrophages; highest in-test concentration 64 μM
[7] = Free plasma concentration; type: in vitro ADME; conditions: free fraction in plasma

## COc1ccn2cc(-c3ccccn3)nc2c1 [Compound 11b, 7-Methoxy-2-(pyridin-2-yl)imidazo[1,2-a]pyridine]
[1]
  CC50 at 5 days: > 63.1 µM
[2]
  microsomal CLint at 3 µM: > 300 µL/min/mg
[3]
  aq. sol.: 723 µM
[4]
  EC50: 25.1 µM
  SI: 3

## Fc1ccc(Nc2c(-c3ccccn3)nc3ncccn23)cc1 [Compound 3m, N-(4-Fluorophenyl)-2-(pyridin-2-yl)imidazo[1,2-a]pyrimidin-3-amine]
[1]
  CC50 at 5 days: > 63.1 µM
[5]
  hepatocyte CLint: 64.8 µL/min/1e6 cells
[2]
  microsomal CLint at 3 µM: 42.4 µL/min/mg
[3]
  aq. sol.: 180 µM
[4]
  EC50: 50.1 µM
  SI: 1

## c1ccc(-c2cn3ccccc3n2)nc1 [Compound 11a, 2-(Pyridin-2-yl)imidazo[1,2-a]pyridine]
[1]
  CC50 at 5 days: > 63.1 µM
[5]
  hepatocyte CLint: 140 µL/min/1e6 cells
[2]
  microsomal CLint at 3 µM: 130 µL/min/mg
[3]
  aq. sol.: 828 µM
[4]
  EC50: 50.1 µM
  SI: 1

## COc1cccc2nc(-c3ccccn3)c(Nc3ccc(F)cc3)n12 [Compound 3c, N-(4-Fluorophenyl)-5-methoxy-2-(pyridin-2-yl)imidazo[1,2-a]pyridin-3-amine]
[1]
  CC50 at 5 days: 7.94 µM
[5]
  hepatocyte CLint: 30 µL/min/1e6 cells
[2]
  microsomal CLint at 3 µM: 28 µL/min/mg
[3]
  aq. sol.: 62 µM
[4]
  EC50: 7.94 µM
  SI: 1

## Fc1ccc(Nc2c(-c3ccccn3)nc3c(F)cccn23)cc1 [Compound 3k, 8-Fluoro-N-(4-fluorophenyl)-2-(pyridin-2-yl)imidazo[1,2-a]pyridin-3-amine]
[1]
  CC50 at 5 days: > 63.1 µM
[5]
  hepatocyte CLint: 101 µL/min/1e6 cells
[2]
  microsomal CLint at 3 µM: 220 µL/min/mg
[3]
  aq. sol.: 12 µM
[4]
  EC50: 39.8 µM
  SI: 2

## COc1ccn2c(N)c(-c3ccccn3)nc2c1 [Compound 7b, 7-Methoxy-2-(pyridin-2-yl)imidazo[1,2-a]pyridin-3-amine]
[1]
  CC50 at 5 days: > 63.1 µM
[5]
  hepatocyte CLint: 7.1 µL/min/1e6 cells
[2]
  microsomal CLint at 3 µM: 120 µL/min/mg
[3]
  aq. sol.: 290 µM
[4]
  EC50: 31.6 µM
  SI: 2

## Fc1ccc(Nc2c(-c3ccccn3)nc3sccn23)cc1 [Compound 3r, N-(4-Fluorophenyl)-6-(pyridin-2-yl)imidazo[2,1-b][1,3]thiazol-5-amine]
[1]
  CC50 at 5 days: 31.6 µM
[5]
  hepatocyte CLint: > 300 µL/min/1e6 cells
[2]
  microsomal CLint at 3 µM: 270 µL/min/mg
[3]
  aq. sol.: 76 µM
[4]
  EC50: 7.94 µM
  SI: 4

## Fc1ccc(Nc2c(-c3ccccn3)nc3ccccn23)nc1 [Compound 8, 5-Fluoro-N-[2-(pyridin-2-yl)imidazo[1,2-a]pyridin-3-yl]pyridin-2-amine]
[5]; clearance class in words
  metabolic stability class in rat hepatocytes: moderate (5.1 ≤ moderate ≤27)
[2]; clearance class in words
  metabolic stability class in human liver microsomes: moderate (8.6 ≤ moderate ≤47)

## Fc1ccc(Nc2c(-c3ccccn3)nc3ccc(F)cn23)cc1 [Compound 3e, 6-Fluoro-N-(4-fluorophenyl)-2-(pyridin-2-yl)imidazo[1,2-a]pyridin-3-amine]
[1]
  CC50 at 5 days: 50.1 µM
[5]
  hepatocyte CLint: > 300 µL/min/1e6 cells
[2]
  microsomal CLint at 3 µM: > 300 µL/min/mg
[3]
  aq. sol.: 25 µM
[4]
  EC50: 7.94 µM
  SI: 6

## Fc1ccc(Nc2c(-c3ccccn3)nc3ccccn23)cc1 [Compound 3a, N-(4-Fluorophenyl)-2-(pyridin-2-yl)imidazo[1,2-a]pyridin-3-amine]
[6]
  PMM pCC50: < 4.2
[5]
  hepatocyte CLint: > 300 µL/min/1e6 cells
[2]
  microsomal CLint at 3 µM: 137 µL/min/mg
[3]
  aq. sol.: 8 µM
[4]
  EC50: 3.98 µM
  SI: 16

## COc1ccn2c(Cl)c(-c3ccccn3)nc2c1 [Compound 12, 3-Chloro-7-methoxy-2-(pyridin-2-yl)imidazo[1,2-a]pyridine]
[1]
  CC50 at 5 days: 31.6 µM
[5]
  hepatocyte CLint: 17 µL/min/1e6 cells
[2]
  microsomal CLint at 3 µM: > 300 µL/min/mg
[3]
  aq. sol.: 562 µM
[4]
  EC50: 15.8 µM
  SI: 2

## COc1ccc2nc(-c3ccccn3)c(Nc3ccc(F)cc3)n2c1 [Compound 3f, N-(4-Fluorophenyl)-6-methoxy-2-(pyridin-2-yl)imidazo[1,2-a]pyridin-3-amine]
[1]
  CC50 at 5 days: 31.6 µM
[4]
  EC50: 2 µM
  SI: 16

## Fc1ccc(Nc2c(-c3ccccn3)nc3ccc(-c4cnoc4)cn23)cc1 [Compound 3q, N-(4-Fluorophenyl)-6-(1,2-oxazol-4-yl)-2-(pyridin-2-yl)imidazo[1,2-a]pyridin-3-amine]
[1]
  CC50 at 5 days: > 63.1 µM
[5]
  hepatocyte CLint: 128 µL/min/1e6 cells
[2]
  microsomal CLint at 3 µM: 75 µL/min/mg
[3]
  aq. sol.: 3 µM
[4]
  EC50: 25.1 µM
  SI: 3

## Fc1ccc(Nc2c(-c3ccccn3)nc3cccnn23)cc1 [Compound 3d, N-(4-Fluorophenyl)-2-(pyridin-2-yl)imidazo[1,2-b]pyridazin-3-amine]
[1]
  CC50 at 5 days: 31.6 µM
[5]
  hepatocyte CLint: > 300 µL/min/1e6 cells
[2]
  microsomal CLint at 3 µM: 212 µL/min/mg
[3]
  aq. sol.: 68 µM
[4]
  EC50: 15.8 µM
  SI: 2

## Fc1ccc(Nc2c(-c3ccccn3)nc3cnccn23)cc1 [Compound 3j, N-(4-Fluorophenyl)-2-(pyridin-2-yl)imidazo[1,2-a]pyrazin-3-amine]
[1]
  CC50 at 5 days: > 63.1 µM
[5]
  hepatocyte CLint: 64.2 µL/min/1e6 cells
[2]
  microsomal CLint at 3 µM: 202 µL/min/mg
[3]
  aq. sol.: 61 µM
[4]
  EC50: > 63.1 µM
  SI: 1

## Fc1ccc(Nc2c(-c3ccccn3)nc3cc(F)ccn23)cc1 [Compound 3h, 7-Fluoro-N-(4-fluorophenyl)-2-(pyridin-2-yl)imidazo[1,2-a]pyridin-3-amine]
[1]
  CC50 at 5 days: > 63.1 µM
[5]
  hepatocyte CLint: 146 µL/min/1e6 cells
[2]
  microsomal CLint at 3 µM: > 300 µL/min/mg
[3]
  aq. sol.: 0.1 µM
[4]
  EC50: 25.1 µM
  SI: 3

## CS(=O)(=O)c1ccc2nc(-c3ccccn3)c(Nc3ccc(F)cc3)n2c1 [Compound 3o, N-(4-Fluorophenyl)-6-methanesulfonyl-2-(pyridin-2-yl)imidazo[1,2-a]pyridin-3-amine]
[1]
  CC50 at 5 days: 31.6 µM
[5]
  hepatocyte CLint: > 300 µL/min/1e6 cells
[3]
  aq. sol.: 5 µM
[4]
  EC50: 31.6 µM
  SI: 1

## CSc1ccc2nc(-c3ccccn3)c(Nc3ccc(F)cc3)n2c1 [Compound 3n, N-(4-Fluorophenyl)-6-(methylsulfanyl)-2-(pyridin-2-yl)imidazo[1,2-a]pyridin-3-amine]
[1]
  CC50 at 5 days: 7.94 µM
[5]
  hepatocyte CLint: > 300 µL/min/1e6 cells
[2]
  microsomal CLint at 3 µM: 247 µL/min/mg
[3]
  aq. sol.: 0.5 µM
[4]
  EC50: 7.94 µM
  SI: 1

## COc1cccn2c(Nc3ccc(F)cc3)c(-c3ccccn3)nc12 [Compound 3l, N-(4-Fluorophenyl)-8-methoxy-2-(pyridin-2-yl)imidazo[1,2-a]pyridin-3-amine]
[1]
  CC50 at 5 days: > 63.1 µM
[5]
  hepatocyte CLint: 29 µL/min/1e6 cells
[2]
  microsomal CLint at 3 µM: 143 µL/min/mg
[3]
  aq. sol.: 2 µM
[4]
  EC50: 7.94 µM
  SI: 8

## Fc1ccc(Nc2c(-c3ccccn3)nc3ccncn23)cc1 [Compound 3g, N-(4-Fluorophenyl)-2-(pyridin-2-yl)imidazo[1,2-c]pyrimidin-3-amine]
[1]
  CC50 at 5 days: > 63.1 µM
[3]
  aq. sol.: 64 µM
[4]
  EC50: 50.1 µM
  SI: 1

## Fc1ccc(Nc2c(-c3ccccn3)nc3cccc(F)n23)cc1 [Compound 3b, 5-Fluoro-N-(4-fluorophenyl)-2-(pyridin-2-yl)imidazo[1,2-a]pyridin-3-amine]
[1]
  CC50 at 5 days: > 63.1 µM
[5]
  hepatocyte CLint: 190 µL/min/1e6 cells
[2]
  microsomal CLint at 3 µM: 60 µL/min/mg
[3]
  aq. sol.: 26 µM
[4]
  EC50: 7.94 µM
  SI: 8

## COc1ccc2nc(-c3ccccn3)c(N(C)c3ccc(F)cc3)n2c1 [Compound 4n, N-(4-Fluorophenyl)-6-methoxy-N-methyl-2-(pyridin-2-yl)imidazo[1,2-a]pyridin-3-amine]
[7]
  free plasma concentration: 2%
